{"source": "patent US7537887B2", "about": "“Net, a transcription factor of the TCF family, as regulator of angiogenic factor expression” (Aventis Pharma S.A., priority 2000, dated 2009)", "molecules": {"B1": {"name": "VEGFa: recombinant human VEGF-A (R&D) (protein)", "chain": "APTTEGEQKSHEVIKFMDVYQRSYCRPIETLVDIFQEYPDEIEYIFKPSCVPLMRCAGCCNDEALECVPTSESNITMQIMRIKPHQSQHIGEMSFLQHSRCECRPKKDRTKPENHCEPCSERRKHLFVQDPQTCKCSCKNTDSRCKARQLELNERTCRCDKPRR"}}, "key": {"[1]": {"system": "Net", "details": "inhibitor 10 μM for 30 min; FIG. 3 lanes 3, 4", "protocol": "(§1) NIH3T3 cells were transfected as described above with the control vector for GPCR (pCEFL) or the vector for GPCR (Line 2). 14 hours later, cells were washed and left in the growth medium for 2.5 hours. The cells were then treated with SB 203580 (10 μM) (Alexis Corp.) or U0126 (10 μM) (Promega) for 30 min. After 6 hours, extracts were analysed by SDS-PAGE and Western-blotting with antibodies against phospho-serine 365 Net (antibody 2F3, Ducret et al. (Oncogene, in press) or activated ERK (Promega).\nPhosphorylation of endogenous Net was followed with a phospho-specific antibody that recognises phospho-serine 365, which is important for phosphorylation induced activation of Net by ERK and p38 signalling cascades.\nas §1, with “(pCEFL-GPCR).” for “(Line 2).”, “[Antibody 2F3 , Giovane” for “(antibody 2F3, Ducret”, “(Genomics (1995) 29:769-72)]” for “(Oncogene, in press)”"}, "[2]": {"system": "ERK", "assay": "ERK activation in GPCR-transfected NIH3T3 cells (Western blot, activated ERK antibody)", "format": "cell-based", "details": "10 μM; FIG. 3", "excerpt": "FIG. 3: Phosphorylation of endogenous Net."}, "[3]": {"molecular_target": "NES binding to CRM1 (Homo sapiens, UniProt O14980)", "sequence (O14980 whole entry)": "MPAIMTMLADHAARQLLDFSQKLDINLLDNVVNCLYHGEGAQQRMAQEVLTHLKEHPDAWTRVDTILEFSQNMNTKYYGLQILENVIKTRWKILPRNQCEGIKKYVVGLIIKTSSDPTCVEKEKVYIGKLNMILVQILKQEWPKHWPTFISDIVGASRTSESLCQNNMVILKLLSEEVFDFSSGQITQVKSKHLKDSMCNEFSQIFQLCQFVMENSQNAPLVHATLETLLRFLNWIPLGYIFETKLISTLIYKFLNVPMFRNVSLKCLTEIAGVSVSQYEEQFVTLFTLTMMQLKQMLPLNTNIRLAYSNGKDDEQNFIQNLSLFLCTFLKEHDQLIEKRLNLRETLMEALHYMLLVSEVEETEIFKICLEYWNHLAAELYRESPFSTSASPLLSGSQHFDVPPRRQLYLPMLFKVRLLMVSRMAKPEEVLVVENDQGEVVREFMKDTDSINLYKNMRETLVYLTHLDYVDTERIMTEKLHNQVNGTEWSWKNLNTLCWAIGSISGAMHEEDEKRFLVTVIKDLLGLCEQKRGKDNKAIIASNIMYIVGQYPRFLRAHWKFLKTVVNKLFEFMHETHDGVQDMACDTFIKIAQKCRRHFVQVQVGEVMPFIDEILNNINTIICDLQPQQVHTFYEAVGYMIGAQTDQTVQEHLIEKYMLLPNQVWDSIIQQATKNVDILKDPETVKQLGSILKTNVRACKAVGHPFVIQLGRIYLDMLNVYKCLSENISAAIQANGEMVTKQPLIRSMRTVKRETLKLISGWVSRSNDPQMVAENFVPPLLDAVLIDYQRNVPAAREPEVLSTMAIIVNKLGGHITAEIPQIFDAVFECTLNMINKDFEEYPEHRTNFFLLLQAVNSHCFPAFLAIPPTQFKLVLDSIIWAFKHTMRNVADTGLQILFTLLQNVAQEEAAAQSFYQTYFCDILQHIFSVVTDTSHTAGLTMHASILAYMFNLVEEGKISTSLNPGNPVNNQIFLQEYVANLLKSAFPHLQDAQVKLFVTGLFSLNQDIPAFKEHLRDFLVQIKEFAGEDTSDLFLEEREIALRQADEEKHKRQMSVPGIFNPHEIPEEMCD", "details": "cited from earlier work"}, "[4]": {"system": "HUVEC cells", "assay": "Microtubule formation by HUVEC cells on Matrigel induced by conditioned media from transfected NIH3T3 cells", "format": "cell-based", "details": "10 ng/ml recombinant human VEGF added to conditioned medium; FIG. 1d, 1f", "protocol": "FIG. 1: Microtubule formation by HUVEC cells on Matrigel induced by conditioned media from differentially transfected NIH3T3 cells. NIH3T3 cells were transfected by pCEFL-GPCR alone (FIG. 1a); pCEFL-GPCR with p601D-antisense-Net (FIG. 1c) or p601D-transdominant-Net (FIG. e). Before incubation with HUVEC cells, some of the conditioned media were incubated with either: (b) 0.2 μg/ml of anti-mouse-VEGF polyclonal antibody (total goat IgG; R&D SYSTEMS) or with (d and f) 10 ng/ml of recombinant human VEGF-A (R&D). The plates were observed after 24 hours (phase contrast, original magnification, ×40).\na. NIH3T3 cells (C11) were transfected by the calcium phosphate technique with pCEFL-KSHVGPCR (mouse EF12 promoter) and the AntiNet expression vector or the corresponding empty vector (p601D: Beddinton et al.1989,Development 106:37-46). 16 hours after applying the precipitate, the cells were washed twice with DMEM, incubated in DMEM with 0,05% FCS for 48 hours. The medium was collected and either tested immediately or stored at −80° C.\nb. HUVEC cells (passage 4-6) were grown in DMEM/F12K containing 10% FCS, Heparine (50 ng/mnl), ECGF(Endothelial Cell Growth Factor, Sigma, 50 ng/ml) and Glutamine (2 mM).\nc. The wells of 24-multiwell plates were coated with […] of Growth Factor Reduced MATRIGEL Matrix (Collaborative Biomedical Products) at 4° C. and incubated for 30 min at 37° C.\nd. […]"}}, "data": [{"molecule": "N#CC(=C(N)Sc1ccccc1N)C(C#N)=C(N)Sc1ccccc1N", "note": "[U 0126, 1,4-diamino-2,3-dicyano-1,4 bis[2-aminophenylthio]butadiene]", "values": [{"measurement": "GPCR induced phosphorylation of Net (phospho-serine 365)", "setting": "[1]", "value": "induction was dependent on both the p38 and ERK pathways"}]}, {"molecule": "C[S+]([O-])c1ccc(-c2nc(-c3ccncc3)c(-c3ccc(F)cc3)[nH]2)cc1", "note": "(centres unmarked) [SB 203580, 4-[5-(4-fluorophenyl)4-4-(pyridinyl)-1H-imidazol-2-yl]phenyl methyl sulfoxide]", "values": [{"measurement": "ERK activation", "setting": "[2]", "value": "did not inhibit ERK activation"}, {"measurement": "GPCR induced phosphorylation of Net (phospho-serine 365)", "setting": "[1]", "value": "induction was dependent on both the p38 and ERK pathways"}]}, {"molecule": "CCC(=C/[C@H](C)C/C=C/C(C)=C/[C@@H](C)C(=O)[C@@H](C)[C@H](O)[C@@H](C)C/C(C)=C/C(=O)O)/C=C/[C@@H]1OC(=O)C=C[C@@H]1C", "note": "[leptomycin B]", "values": [{"measurement": "active nuclear export of the Net protein induced by the JNK pathway", "setting": "[3]", "value": "inhibited"}]}, {"molecule": "B1", "values": [{"measurement": "microtubule inducing activity of conditioned medium from Net down-regulated GPCR cells after adding VEGFa", "setting": "[4]", "value": "restored microtubule inducing activity"}]}]}
